# Measurements: patent US9751919B2, “Antimicrobial compositions comprising a hyaluronic acid binding peptide and a β-lactam antibiotic” (priority 2012, dated 2017)
# Several values for one entry are separate records, joined by “and”; a condition that tells them apart may be missing. Equal values may be shown once. Marks after values point to notes of the source that are not given here.
# Legend:
# Test in all cases: Checkerboard assay (FIC index)
# VRSA = type: cell-based, Staphylococcus aureus
# Protocol: (§1) Checkerboard assays were carried out as described by Bonapace et al.
# (§2) Diagnostic Microbiology and Infectious Diseases 2002; 44:363-366. In brief, checkerboard assays were performed in 96 well microtitre trays using an 8-by-8 well configuration. […] 96-well custom designed microtitre plates contained 100 ul/well of cation adjusted Mueller-Hinton broth (eg. for Enterobacteriaceae) with or without lysed horse blood (2-5% V/V) [eg. for S. pneumoniae] and were inoculated to achieve a final concentration of approximately 5×10^5 CFU/ml and incubated in ambient air for 24 hours prior to reading. Colony counts were performed periodically to confirm inocula. Quality control was performed every two weeks using a variety of ATCC QC organisms including; S. pneumoniae 49619, S. aureus 29213, E. faecalis 29212, E. coli 25922 and P. aeruginosa 27853. […] All peptides were assessed for synergy with β-lactams and vancomycin. For all antimicrobials as well as the peptides, CLSI criteria were used.
# (§3) The fractional inhibitory concentration index (FIC index) was used to interpret synergy, antagonism or additivity/indifference. FIC index=FIC of drug A+FIC of drug B where:
# (§4) The FIC of drug A and drug B was calculated as follows, FIC drug A=MIC of drug A in combination/MIC of drug A alone and FIC of drug B=MIC of drug B in combination/MIC of drug B alone. Synergy was defined as FIC index ≦0.5, additivity/indifference defined as a FIC between 0.5 and 4 and antagonism defined as an FIC index >4.
# (§5) The fractional inhibitory concentration index (FIC index) was used to interpret synergy, antagonism or additivity/indifference. FIC index=FIC of drug A+FIC of drug B where the FIC of drug A and drug B was calculated as follows, FIC drug A=MIC of drug A in combination/MIC of drug A alone and FIC of drug B=MIC of drug B in combination/MIC of drug B alone. Synergy was defined as FIC index ≦0.5, additivity/indifference defined as an FIC of between 0.5 and 4 and antagonism defined as an FIC index >4.
# (§6) The checkerboard assays were carried out as described by Eliopoulos and Moellering (Chapter 9) in Antibiotic in Laboratory Medicine, Lorian Ed. 1996 as well as Bonapace et al. Diagnostic Microbiology and Infectious Diseases 2002; 44:363-366 and Bonapace et al. Diagnostic Microbiology and Infectious Diseases 2000; 38:43-50. In brief, checkerboard assays were performed in 96 well microtitre trays using an 8-by-8 well configuration. […] 96-well custom designed microtitre plates contained 100 ul/well of cation adjusted Mueller-Hinton broth (eg. for Enterobacteriaceae) with or without lysed horse blood (2-5% V/V) [eg. for S. pneumoniae] and were inoculated to achieve a final concentration of approximately 5×10^5 CFU/ml and incubated in ambient air for 24 hours prior to reading. Colony counts were performed periodically to confirm inocula. Quality control was performed every two weeks using a variety of ATCC QC organisms including; S. pneumoniae 49619, S. aureus 29213, E. faecalis 29212, E. coli 25922 and P. aeruginosa 27853.
# (§7) The FIC of drug A and drug B is calculated as follows, FIC drug A=MIC of drug A in combination/MIC of drug A alone and FIC of drug B=MIC of drug B in combination/MIC of drug B alone. Synergy is defined as FIC index ≦0.5, additivity/indifference FIC >0.5-4 and antagonism FIC index >4.
# (§8) These agents were obtained as laboratory grade powders from their respective manufacturers. Stock solutions were prepared and dilutions made as described by the Clinical Laboratory Standards Institute (2005 CLSI).
# CA-MRSA = type: cell-based, Staphylococcus aureus
# Protocol: as §1, §2, §3, §4, §5, §6, §7, §8
# HA-MRSA = type: cell-based, Staphylococcus aureus
# Protocol: as §1, §2, §3, §4, §5, §6, §7, §8
# E. coli = type: cell-based, Escherichia coli; conditions: for synergy (in words): with β-lactams, against E. coli
# Protocol: as §1, §2, §3, §4
# as §6, with “27853. For all antimicrobials as well as PEP35, CLSI criteria was used.” for “27853.”
# as §7
# Antimicrobials used included PEP35, cefazolin, ceftriaxone, vancomycin, linezolid, tigecycline and daptomycin versus Gram-positive cocci and PEP35, gentamicin, levofloxacin, piperacillin/tazobactam, meropenem and colistin (Polymyxin E) versus Gram-negative bacilli. These agents were obtained as laboratory grade powders from their respective manufacturers. Stock solutions were prepared and dilutions made as described by the Clinical Laboratory Standards Institute (2005 CLSI).
# Organisms included Gram-positive cocci (2 strains of each): Methicillin-susceptible Staphylococcus aureus (MSSA), community-associated (CA) and healthcare-associated (HA) methicillin-resistant Staphylococcus aureus (MRSA), vancomycin-intermediate Staphylococcus aureus (VISA), vancomycin-resistant Staphylococcus aureus (VRSA), methicillin-resistant Staphylococcus epidermidis (MRSE), Streptococcus pyogenes, Streptococcus agalactiae, Streptococcus pneumoniae, Enterococcus faecalis, Enterococcus faecium and vancomycin-resistant enterococcus (VRE). […]
# [1] = antibiotic combined with PEP35 (added together), VRSA 105
# [2] = β-lactam combined with HybPEP35-1, VRSA 106
# [3] = β-lactam combined with PEP-52, VRSA 106
# [4] = β-lactam combined with Scrambled PEP35, VRSA 106
# [5] = antibiotic combined with PEP35 (added together), CA-MRSA 70857 (USA400)
# [6] = β-lactam combined with HybPEP35-1, CA-MRSA 69615 (USA400)
# [7] = β-lactam combined with PEP-52, CA-MRSA 69615 (USA400)
# [8] = β-lactam combined with Scrambled PEP35, CA-MRSA 69615 (USA400)
# [9] = antibiotic combined with PEP35 (added together), HA-MRSA 77090 (USA100/800)
# [10] = β-lactam combined with HybPEP35-1, HA-MRSA 70798 (USA100/800)
# [11] = β-lactam combined with PEP-52, HA-MRSA 70798 (USA100/800)
# [12] = β-lactam combined with Scrambled PEP35, HA-MRSA 70798 (USA100/800)
# [13] = antibiotic combined with PEP35, E. coli 69716
# [14] = β-lactam combined with HybPEP35-1, E. coli 69716
# [15] = β-lactam combined with PEP-52, E. coli 69716
# [16] = β-lactam combined with Scrambled PEP35, E. coli 69716
# [17] = antibiotic combined with PEP35 (added together), VRSA 106
# [18] = antibiotic combined with PEP35 (added together), CA-MRSA 69615 (USA400)
# [19] = antibiotic combined with PEP35 (added together), HA-MRSA 70798 (USA100/800)
# [20] = antibiotic combined with PEP35, E. coli 70752
Compound,Avg ΣFIC (range) (VRSA; [1]),Avg ΣFIC (range) (VRSA; [2]),Avg ΣFIC (range) (VRSA; [3]),Avg ΣFIC (range) (VRSA; [4]),Avg ΣFIC (range) (CA-MRSA; [5]),Avg ΣFIC (range) (CA-MRSA; [6]),Avg ΣFIC (range) (CA-MRSA; [7]),Avg ΣFIC (range) (CA-MRSA; [8]),Avg ΣFIC (range) (HA-MRSA; [9]),Avg ΣFIC (range) (HA-MRSA; [10]),Avg ΣFIC (range) (HA-MRSA; [11]),Avg ΣFIC (range) (HA-MRSA; [12]),Avg ΣFIC (range) (E. coli; [13]),Avg ΣFIC (range) (E. coli; [14]),Avg ΣFIC (range) (E. coli; [15]),Avg ΣFIC (range) (E. coli; [16]),Avg ΣFIC (range) (VRSA; [17]),Avg ΣFIC (range) (CA-MRSA; [18]),Avg ΣFIC (range) (HA-MRSA; [19]),other results
Cc1nnc(SCC2=C(C(=O)O)N3C(=O)[C@@H](NC(=O)Cn4cnnn4)[C@H]3SC2)s1 [Cefazolin],0.63 (0.5-1.015),0.52,>1*,0.52,0.3 (0.12-0.56) and 0.26 (0.09-0.53),0.24,>0.5*,0.24,0.30 (0.12-0.56) and 0.24 (0.075-0.53),0.35,>1*,0.35,1.1,1.1,>1*,1.1,–,–,–,–
CO/N=C(\C(=O)N[C@@H]1C(=O)N2C(C(=O)O)=C(CSc3nc(=O)c(=O)[nH]n3C)CS[C@H]12)c1csc(N)n1 [Ceftriaxone],0.45 (0.24-0.56) and 0.54 (0.18-1.06),0.39,>1*,0.39,0.51 (0.18-1.015),0.31,>0.5*,0.31,0.27 (0.09-0.53) and 0.27 (0.09-0.56),0.32,>1*,0.32,1.04,0.41,>1*,0.41,–,–,–,–
"CCCCCCCCCC(=O)N[C@@H](Cc1c[nH]c2ccccc12)C(=O)N[C@H](CC(N)=O)C(=O)N[C@@H](CC(=O)O)C(=O)N[C@@H]1C(=O)NCC(=O)N[C@@H](CCCN)C(=O)N[C@@H](CC(=O)O)C(=O)N[C@H](C)C(=O)N[C@@H](CC(=O)O)C(=O)NCC(=O)N[C@H](CO)C(=O)N[C@@H]([C@H](C)CC(=O)O)C(=O)N[C@@H](CC(=O)c2ccccc2N)C(=O)O[C@@H]1C [Daptomycin, daptomycin]",0.52 (0.37-0.62),–,–,–,1.18 (1.015-1.5),–,–,–,1.27 (1.015-2.03),–,–,–,–,–,–,–,0.91 (0.56-1.25),1.18 (1.015-1.5),0.99 (0.53-1.5),–
"CC(=O)NC[C@H]1CN(c2ccc(N3CCOCC3)c(F)c2)C(=O)O1 [Linezolid, linezolid]",0.80 (0.5-1.06),–,–,–,0.89 (0.5-1.12),–,–,–,0.74 (0.53-1.06),–,–,–,–,–,–,–,0.83 (0.5-1.12),0.80 (0.515-1.12),0.70 (0.5-1.06),–
C[C@@H](O)[C@H]1C(=O)N2C(C(=O)O)=C(S[C@@H]3CN[C@H](C(=O)N(C)C)C3)[C@H](C)[C@H]12 [Meropenem],–,0.91,>1*,0.91,–,0.70,>1*,0.70,–,0.38,>1*,0.38,–,1.21,>1*,1.21,0.91,0.49,0.30,Avg ΣFIC (range) (E. coli; [20]): 1.21 (1.03-1.5)
"CN(C)c1cc(NC(=O)CNC(C)(C)C)c(O)c2c1C[C@H]1C[C@H]3[C@H](N(C)C)C(O)=C(C(N)=O)C(=O)[C@@]3(O)C(O)=C1C2=O [Tigecycline, tigecycline]",0.93 (0.62-1.12),–,–,–,0.74 (0.5-1.06),–,–,–,0.83 (0.5-1.12),–,–,–,–,–,–,–,1.2 (0.56-2.12),0.93 (0.62-1.12),0.77 (0.5-1.06),–
CN[C@H](CC(C)C)C(=O)N[C@H]1C(=O)N[C@@H](CC(N)=O)C(=O)N[C@H]2C(=O)N[C@H]3C(=O)N[C@H](C(=O)N[C@H](C(=O)O)c4cc(O)cc(O)c4-c4cc3ccc4O)[C@H](O)c3ccc(c(Cl)c3)Oc3cc2cc(c3O[C@@H]2O[C@H](CO)[C@@H](O)[C@H](O)[C@H]2O[C@H]2C[C@](C)(N)[C@H](O)[C@H](C)O2)Oc2ccc(cc2Cl)[C@H]1O [Vancomycin],0.3 (0.15-0.53) and 0.49 (0.24-1.06),–,–,–,1.05 (0.75-1.25),–,–,–,0.95 (0.56-1.25),–,–,–,–,–,–,–,0.27 (0.09-0.53) and 0.40 (0.15-1.06),1.19 (1.03-1.5),1.19 (1.03-1.5),–
KKKKKLQLQLNLIKKKVQVSVVVVRRH (Reordered human peptide sequence) [Scrambled PEP35],–,–,–,–,–,–,–,–,–,–,–,–,–,–,–,–,–,–,–,synergy (in words) (E. coli): not synergistic (except at low level with ceftriaxone)
LKQKIKHVVKLKVVVKLRSQLVKRKQN (listed as Mus sp.) [PEP35],–,–,–,–,–,–,–,–,–,–,–,–,–,–,–,–,–,–,–,synergy (in words) (E. coli): not synergistic
piperacillin/tazobactam,–,–,–,–,–,–,–,–,–,–,–,–,0.87 (0.56-1.12) and 0.63 (0.5-1.03),0.59,>1*,0.59,–,–,–,"Avg ΣFIC (range) (E. coli; [20]): 0.98 (0.62-1.25) and 0.63 (0.24-1.03); Avg ΣFIC (range) (E. coli; β-lactam combined with HybPEP35-1, E. coli 70752): 0.67; Avg ΣFIC (range) (E. coli; β-lactam combined with PEP-52, E. coli 70752): >1*; Avg ΣFIC (range) (E. coli; β-lactam combined with Scrambled PEP35, E. coli 70752): 0.67"
